For 72 compounds, cytotoxicity results are on record in ChEMBL document CHEMBL3507680, “University of Dundee, Gates Library screen for HepG2 cell viability”.

The data set in a line: Human HepG2 cell viability assay in 384 well format. It counts as toxicity, cell-based. More on the design: dose 125 nL, time 70.5 hour; cytotoxicity at 70.5 h: concentration not given beside the values. Particulars: HepG2 cells, read-out: Inhibition.
Regarding `O=C(O)c1ccc(CN2CCC(c3ccnc4ccnn34)CC2)cc1`, the cytotoxicity at 70.5 h was -12%.

As for `Cc1cnc(CN2C[C@H]3C[C@H](Oc4ccccc4)C[C@H]3C2)cn1`, the cytotoxicity at 70.5 h is 34.2%.

On to `COC(=O)[C@@H]1CN(C(=O)c2cscn2)C[C@H]1c1ccc(OC)cc1`, for which the cytotoxicity at 70.5 h is -1.39%.

Turning to `COc1ccc([C@@H]2CN(C(=O)c3cscn3)C[C@H]2C(=O)O)cc1`, the cytotoxicity at 70.5 h is -3.2%.

Take `COc1ccccc1CC(=O)NC(C)c1nc2cccnc2n1C(C)C` (configuration not stated): the cytotoxicity at 70.5 h is -1.11%.

For the compound `C=C(C)CN1CCN(Cc2cnc(OC)nc2)CC1`, the cytotoxicity at 70.5 h is 6.5%.

As for `Cc1cnc(-c2nc(NC3CCCC3)ncc2-c2onc(C)c2C)cn1`, the cytotoxicity at 70.5 h is -4.47%.

On to `Cc1cnc(-c2nc(NC3CC3)ncc2-c2onc(C)c2C)cn1`, for which the cytotoxicity at 70.5 h was -4.72%.

Regarding `O=C(O)C1CN(c2cccc(F)c2)CCO1` (configuration not stated), the cytotoxicity at 70.5 h came out at 14.9%.

As to `Cc1cccc(C(=O)N2CCCC(Cc3cncc4ccccc34)C2)n1` (configuration not stated), the cytotoxicity at 70.5 h was -0.949%.

`CC(=O)N1CCCC(c2nc(N(C)C)ncc2-c2cccc(F)c2)C1` (configuration not stated): the cytotoxicity at 70.5 h came to 3.21%.

In the case of `Fc1cccc(OC2CCN(Cc3ncc[nH]3)CC2)c1`, the cytotoxicity at 70.5 h was 18%.

Regarding `CNC(=O)c1cn[nH]c1C1CCN(Cc2ccccc2F)C1` (configuration not stated), the cytotoxicity at 70.5 h is -3.84%.

On to `Cc1n[nH]cc1C(=O)N1CCCC1c1cc[nH]n1` (configuration not stated), for which the cytotoxicity at 70.5 h was -5.51%.

With `COCCN1CC(c2cc(O)nc(NC(C)C)n2)CC1=O` (configuration not stated), the cytotoxicity at 70.5 h was -6.05%.

For the compound `COCCN1CCCC(c2cncc(Oc3ccccc3OC)n2)C1` (configuration not stated), the cytotoxicity at 70.5 h was -3.1%.

With `COCCNC(=O)C1(Cc2ccccc2-c2ccncc2)CCOCC1`, the cytotoxicity at 70.5 h is -9.35%.

As to `Cc1nc(C)n(CC(=O)N2CCCC(c3cc4ccccc4cn3)C2)n1` (configuration not stated), the cytotoxicity at 70.5 h was -5.39%.

`CCn1cc(S(=O)(=O)NC2(CN3CCOCC3)CCCCC2)c(C)n1`: the cytotoxicity at 70.5 h was -0.203%.

For `O=C(CCn1c(C(F)F)cc2cccnc21)NC1CCCCC1`, the cytotoxicity at 70.5 h was -5.83%.

For the compound `Cc1cc(-c2cnc(C)nc2CN(C)C(=O)c2cc(C3CC3)on2)on1`, the cytotoxicity at 70.5 h was -3.21%.

For the compound `O=C(c1c[nH]nn1)N1CCN(C(c2ccccc2)C(F)(F)F)CC1` (configuration not stated), the cytotoxicity at 70.5 h is -10.3%.

Take `CNS(=O)(=O)c1cccc(CNC(=O)CCc2ccsc2)c1`: the cytotoxicity at 70.5 h is -4.01%.

In the case of `COC(=O)C(C)(C)NC(=O)c1scnc1Cl`, the cytotoxicity at 70.5 h amounted to 0.537%.

`CC1(C)CN(C(=O)CCc2nc(-c3ccncc3)no2)CCO1`: the cytotoxicity at 70.5 h is -12%.

In the case of `CC1(C)COCCN1C(=O)CCc1nc(-c2ccccn2)no1`, the cytotoxicity at 70.5 h is -18.1%.

As for `Cn1ccc(CS(=O)(=O)Cc2ccccc2)cc1=O`, the cytotoxicity at 70.5 h is -12.9%.

Turning to `CCC(CC)(CCCNC(=O)c1c(C)noc1C)C1OCCO1`, the cytotoxicity at 70.5 h is -5.03%.

Regarding `Cc1c(C(=O)O)nnn1-c1cccc2cccnc12`, the cytotoxicity at 70.5 h was -13.1%.

As for `COc1ccccc1CNCCc1cccc(C(N)=O)c1`, the cytotoxicity at 70.5 h is -12.3%.

As for `CCCNc1nc(CS(=O)(=O)c2ccccc2)cs1`, the cytotoxicity at 70.5 h is -7.26%.

As for `COC(=O)C(NC(=O)c1ccc(N(C)C)nc1)c1ccccc1` (configuration not stated), the cytotoxicity at 70.5 h is -8.4%.

As to `C=C(C)CNc1nc(CS(=O)(=O)c2ccccc2)cs1`, the cytotoxicity at 70.5 h was -2.16%.

Regarding `Cc1c(C(=O)N2CCC2(C)C)nnn1-c1cccc2cccnc12`, the cytotoxicity at 70.5 h was -3.77%.

Regarding `O=C(Cc1cccc(F)c1F)NS(=O)(=O)c1ccc(Cl)cc1F`, the cytotoxicity at 70.5 h is 12.1%.

Turning to `Cc1c(C(=O)N2CCC2(C)C)nnn1-c1cccc2cnccc12`, the cytotoxicity at 70.5 h was -12.7%.

Regarding `Cc1c(C(=O)N2CC(=O)N(C)C2)nnn1-c1cccc2cccnc12`, the cytotoxicity at 70.5 h is -3.09%.

Take `CCc1ccc(C(NCC(N)=O)C(C)(C)C)o1` (configuration not stated): the cytotoxicity at 70.5 h was -6.31%.

With `Cc1ccc(F)c(N2CCCC(NS(=O)(=O)CCCF)C2=O)c1` (configuration not stated), the cytotoxicity at 70.5 h is -11.4%.

As to `CCOCCCNc1nc(CS(=O)(=O)c2ccccc2)cs1`, the cytotoxicity at 70.5 h was -6.56%.

For the compound `Cc1csc(CN(C)S(=O)(=O)c2ccc(C)c(N(C)C)c2)n1`, the cytotoxicity at 70.5 h was -11.1%.

For `Cc1cc(CC(=O)N(C)Cc2cccc(OC(C)C)c2)n[nH]1`, the cytotoxicity at 70.5 h was -9.38%.

As to `COCCOCC(=O)NC1CCN(c2ccccn2)CC1`, the cytotoxicity at 70.5 h was 16.4%.

Turning to `NC(=O)CNC(c1ccccc1)c1ccc(OC(F)F)cc1` (configuration not stated), the cytotoxicity at 70.5 h was found to be 11.2%.

For `O=C(COCCOc1ccccc1)NC1CCN(c2ncccn2)CC1`, the cytotoxicity at 70.5 h was found to be 41.6%.

Take `O=C(COCCOc1ccccc1)NC1CCN(C(=O)C2CC2)CC1`: the cytotoxicity at 70.5 h came to 14.4%.

With `Cc1cc(C)c(S(N)(=O)=O)cc1C(=O)NCCN1CCC(C)CC1`, the cytotoxicity at 70.5 h was -12.9%.

Turning to `NC(=O)CN1CCC(NC(=O)COCCOc2ccccc2)CC1`, the cytotoxicity at 70.5 h is -4.83%.

Turning to `N#CC1(C(=O)N2CCOC(c3ccc(F)cc3)C2)CCCC1` (configuration not stated), the cytotoxicity at 70.5 h is -15.9%.

For the compound `CCc1nnc2n1CCN(C(C(N)=O)c1ccc(F)cc1)C2` (configuration not stated), the cytotoxicity at 70.5 h amounted to 26.6%.

Turning to `CS(=O)(=O)NC1CC(=O)N(c2ccccc2Cl)C1` (configuration not stated), the cytotoxicity at 70.5 h was -27%.

As for `Cc1cc(Br)ccc1C(=O)NCCN1CCCCCC1`, the cytotoxicity at 70.5 h is -10.6%.

For `CC(C)(C)CNC(=O)c1ccc(C(=O)O)nc1`, the cytotoxicity at 70.5 h is -9.27%.

Regarding `COc1cccc(S(=O)(=O)NC(=O)C2CC(c3ccccc3)=NO2)c1` (configuration not stated), the cytotoxicity at 70.5 h was -9.7%.

For the compound `CCC(c1ccc(F)cc1)N1CCn2c(CO)nnc2C1` (configuration not stated), the cytotoxicity at 70.5 h is -8.02%.

Turning to `NC(=O)CSCC(=O)NC1(c2cccc(Br)c2)CC1`, the cytotoxicity at 70.5 h was determined as 32.5%.

Take `CCc1nc(C2CCCN2C(=O)c2cnc3n[nH]c(C)c3c2)no1` (configuration not stated): the cytotoxicity at 70.5 h was -12.5%.

`CCCOc1ccc(CCC(=O)Nc2nonc2C)cc1`: the cytotoxicity at 70.5 h is -4.36%.

Turning to `O=C(O)CCc1ccc(S(=O)(=O)Nc2cnn(CC3CC3)c2)cc1`, the cytotoxicity at 70.5 h is 27.6%.

Turning to `Cn1nc(C(=O)NC2(c3ccccc3)CCC2)ccc1=O`, the cytotoxicity at 70.5 h came to 1.95%.

Take `Cc1ccc(C)c(OCC(=O)NC2CCN(c3ccccn3)CC2)c1`: the cytotoxicity at 70.5 h is -11.1%.

In the case of `CC1Oc2c(cccc2C(=O)N2CCCCCC2)NC1=O` (configuration not stated), the cytotoxicity at 70.5 h was 29.3%.

Regarding `COc1cccc(Cn2[nH]c(C)c3c(NC(=O)C(C)OC)nnc2-3)c1` (configuration not stated), the cytotoxicity at 70.5 h is -6.21%.

In the case of `CN(C)CCN(C)C(=O)NC1CCC(Oc2ccccc2C#N)CC1` (configuration not stated), the cytotoxicity at 70.5 h was -4.89%.

For `Cc1nnc(NCCc2coc(-c3ccccc3)n2)c(C#N)c1C`, the cytotoxicity at 70.5 h was -2.75%.

`COc1ccc(-c2nc(CCNc3nnc(C)c(C)c3C#N)co2)cc1`: the cytotoxicity at 70.5 h was found to be 13.7%.

Regarding `O=C1CC(C(=O)Nc2nnc(-c3ccccn3)[nH]2)c2ccccc2N1` (configuration not stated), the cytotoxicity at 70.5 h turned out to be 6.91%.

Take `CN(C)c1ncc(C2Nc3ccccc3C3=NCCCN32)cn1` (configuration not stated): the cytotoxicity at 70.5 h is -4.88%.

In the case of `COCCC(=O)NC1CCN(CC2(c3cccc(F)c3)CCCC2)CC1`, the cytotoxicity at 70.5 h worked out at 0.0702%.

Turning to `CCC(CN1CCCC1)NC(=O)Cc1c(C)[nH]c2c(C)cc(C)cc12` (configuration not stated), the cytotoxicity at 70.5 h turned out to be 12.8%.

In the case of `Cc1ccc(CN(CCCN(C)C)Cc2cnc(C)n2C)o1`, the cytotoxicity at 70.5 h came to 6.53%.

Consider `Cc1ccc(CN(CCCN2CCOCC2)Cc2[nH]cnc2C)o1`, for which the cytotoxicity at 70.5 h was -2.33%.
